Laboratory results: patent publication US20250009835A1, “PHARMACEUTICAL COMPOSITION AND HEALTH FUNCTIONAL FOOD FOR PREVENTION OR TREATMENT OF CANCER COMPRISING MIXED HERBAL EXTRACT” (H&O BIOSIS CO., LTD., priority 2021, published 2025)

Columns and labels:
[1] = test system: SNU475 cell line; settings: known property of the SNU475 cell line; cited from earlier work
[2] = test system: SNU475 cell line; test: Cell viability in anticancer drug-resistant cancer cells; format: cell-based; settings: 0, 1, and 3 µM range, FIG. 4A
Description: (§1) For cell viability measurements on cancer cell lines, three hepatocellular carcinoma cell lines (Huh-7, Hep3B, and SNU475) were seeded in a 384-well plate at a density of 2,000 cells/40 μl/well. After incubation for 16 hours, the extract of the present invention was treated at a concentration of 10 μl/well, followed by incubation at 37° C. for 48 hours. After 48 hours, 40 μl/well of the medium was removed and 4% paraformaldehyde was added to be a 30 μl/well, followed by incubation at room temperature for 10 minutes. Thereafter, after washing with DPBS, nuclear staining was performed with Hoechst33342 at a concentration of […] at room temperature for 10 minutes. After washing twice with DPBS, images were acquired with Operetta. The cell viability was identified by counting the number of cells using Operetta software.

[3] = test system: Huh7 and Hep3B cell lines; test: Cell viability in hepatocellular carcinoma cell lines without drug resistance; format: cell-based; settings: 0, 1, and 3 µM range, FIG. 4A
Description: as §1

| Structure (SMILES) | resistance of SNU475 to regorafenib [1] | anticancer effect of sorafenib in SNU475 [2] | anticancer effect of sorafenib in Huh7 and Hep3B [3] |
| --- | --- | --- | --- |
| CNC(=O)c1cc(Oc2ccc(NC(=O)Nc3ccc(Cl)c(C(F)(F)F)c3)c(F)c2)ccn1 [regorafenib] | strong resistance |  |  |
| CNC(=O)c1cc(Oc2ccc(NC(=O)Nc3ccc(Cl)c(C(F)(F)F)c3)cc2)ccn1 [sorafenib] |  | exhibited resistance | anticancer effect was exhibited |
